For this series the following is noted: 101.33 kPa, Liquid, Vibrating tube method.

Five compounds from the NIST ThermoML archive (doi:10.1021/je5002945) can be followed below.

Structures are written as SMILES. Numbers after ± are expanded uncertainties.

Broadly, the mass density is mass per unit of volume. For `CCCCN(C=O)CCCC` [N,N-dibutylformamide], the mass density (293.15 K) is given as 879.05 ± 0.23 kg/m3; the mass density (298.15 K) was determined as 875.12 ± 0.23 kg/m3; the mass density (303.15 K) came out at 871.17 ± 0.23 kg/m3; the mass density (308.15 K) was 867.15 ± 0.23 kg/m3; the mass density (313.15 K) was 863.11 ± 0.23 kg/m3; the mass density (318.15 K) is 859.01 ± 0.23 kg/m3. Besides, where the note is “323.15 K”, the mass density is given as 854.82 ± 0.23 kg/m3.

For the compound `CC(=O)N(C)C` [N,N-dimethylethanamide], the mass density (293.15 K) is reported as 940.92 ± 0.23 kg/m3; the mass density (298.15 K) was 936.3 ± 0.23 kg/m3; the mass density (303.15 K) amounted to 931.62 ± 0.23 kg/m3; the mass density (308.15 K) was 926.89 ± 0.23 kg/m3; the mass density (313.15 K) amounted to 922.09 ± 0.23 kg/m3; the mass density (318.15 K) is 917.23 ± 0.23 kg/m3. Moreover, the mass density (323.15 K) was determined as 912.23 ± 0.23 kg/m3.

On to `CCNC=O` [N-ethylformamide], for which the mass density runs as follows: (293.15 K) 951.59 ± 0.23 kg/m3; (298.15 K) 947.48 ± 0.23 kg/m3; (303.15 K) 943.29 ± 0.23 kg/m3; (308.15 K) 939.04 ± 0.23 kg/m3; (313.15 K) 934.78 ± 0.23 kg/m3; (318.15 K) 930.45 ± 0.23 kg/m3. Moreover, for the setting “323.15 K”, the mass density came out at 926.06 ± 0.23 kg/m3.

With `CNC=O` [N-methylformamide], the mass density (293.15 K) came to 1003.35 ± 0.23 kg/m3; the mass density (298.15 K) stood at 998.91 ± 0.23 kg/m3; the mass density (303.15 K) is 994.49 ± 0.23 kg/m3; the mass density (308.15 K) worked out at 990.01 ± 0.23 kg/m3; the mass density (313.15 K) is 985.47 ± 0.23 kg/m3; the mass density (318.15 K) was determined as 980.88 ± 0.23 kg/m3. Besides, the mass density (323.15 K) was determined as 976.24 ± 0.23 kg/m3.

With `CN(C)C=O` [dimethylformamide], the mass density was determined as 948.72 ± 0.07 kg/m3 (293.15 K); 943.86 ± 0.07 kg/m3 (298.15 K); 939 ± 0.07 kg/m3 (303.15 K); 934.08 ± 0.07 kg/m3 (308.15 K); 929.13 ± 0.08 kg/m3 (313.15 K); 924.06 ± 0.08 kg/m3 (318.15 K). Further, the mass density (323.15 K) was found to be 918.96 ± 0.08 kg/m3.
